Assay results reported in patent publication US9770481B2, “Inhibitors of NOX1” (UNIVERSITY OF PITTSBURGH—OF THE COMMONWEALTH SYSTEM OF …, priority 2011, dated 2017).

Key:
Nox1 = target: T1, Nox1 (Homo sapiens, UniProt Q9Y5S8); test: O2- production by COS22 cells transfected with Nox1 (cytochrome c reduction); type: cell-based; settings: COS 22; at a dose of 1.0 μM; read-out: Maximal inhibition of total O2- production
T1 construct: expressed in transfected cells; host or cells: COS22 (monkey kidney COS cells stably expressing human p22phox)
T1 sequence (Q9Y5S8 1-564): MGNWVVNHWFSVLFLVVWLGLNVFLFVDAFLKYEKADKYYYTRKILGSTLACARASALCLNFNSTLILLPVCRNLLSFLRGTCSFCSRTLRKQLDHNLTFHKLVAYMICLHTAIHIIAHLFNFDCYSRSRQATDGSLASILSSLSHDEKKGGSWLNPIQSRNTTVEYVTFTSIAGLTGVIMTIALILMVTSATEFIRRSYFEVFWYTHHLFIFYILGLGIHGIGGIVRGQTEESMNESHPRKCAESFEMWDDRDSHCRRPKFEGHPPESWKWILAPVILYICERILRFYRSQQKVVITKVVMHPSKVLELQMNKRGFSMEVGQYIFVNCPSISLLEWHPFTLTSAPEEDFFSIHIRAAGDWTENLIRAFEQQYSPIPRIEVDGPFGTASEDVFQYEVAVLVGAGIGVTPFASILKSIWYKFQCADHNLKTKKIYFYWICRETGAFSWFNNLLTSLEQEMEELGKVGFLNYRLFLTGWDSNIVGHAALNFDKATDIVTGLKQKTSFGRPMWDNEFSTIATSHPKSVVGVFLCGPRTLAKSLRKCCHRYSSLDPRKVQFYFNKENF
T1 sequence (P13498 1-195 partner): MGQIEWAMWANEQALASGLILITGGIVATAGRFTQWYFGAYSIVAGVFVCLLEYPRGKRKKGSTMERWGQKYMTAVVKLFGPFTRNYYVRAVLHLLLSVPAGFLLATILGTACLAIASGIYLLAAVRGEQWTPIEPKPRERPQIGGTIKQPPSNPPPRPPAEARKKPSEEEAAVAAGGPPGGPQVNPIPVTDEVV
Procedure: Experiments were performed to test the effect of NoxA1ds on O2^− production by Nox1. COS22 is a monkey kidney COST cell line expressing transgenic human p22phox and was produced by stable transfection of the full-length p22phox cDNA into parental COST wild-type cells. COS22 cells were transfected with Nox1 to express the Nox1 enzyme and were then treated with either NoxA1ds or its scrambled control (SCRMB). Production of O2^− was calculated by monitoring the reduction of cytochrome c for 15 minutes post NADPH addition and subtracting baseline cytochrome c reduction occurring in the presence of SOD.

[1] = system: HPAEC constitutively expressing Nox1; test: Angiotensin II-induced O2- production by HPAEC (cytochrome c); type: cell-based, human; settings: 100 nM angiotensin II, 10 μM peptide, 1 hr
Procedure: FIG. 10. O2^− Production by human pulmonary artery endothelial cells (“HPAEC”) which were either (i) untreated; (ii) treated with 100 nM angiotensin II; (iii) treated with 100 nM angiotensin II and 10 μM NoxA1ds; or (iv) treated with 100 nM angiotensin II and 10 μM SCRMB peptide. Results represent mean±SEM, n=5-9, 2-3 separate experiments.
In further studies, HPAEC constitutively expressing Nox1 were treated with vehicle or Angiotensin II (AngII, one mediator of hypertension) alone or in combination with NoxA1ds, or SCRMB for 1 hr. O2^− production was then measured via reduction of cytochrome c.

[2] = system: rat aortic smooth muscle cells; test: Calponin and osteopontin expression in stretched rat aortic smooth muscle cells (Western blot); type: cell-based; settings: 10 μM added every four hours; cyclic stretch 24 hrs
Procedure: The effect of Nox1 inhibition on the expression of certain protein markers of rat aortic smooth muscle cell contractile vs. synthetic phenotypes was evaluated. Cells were subjected to 24 hrs of cyclic stretch (10%, 1 Hz) with 10 μM NoxA1ds or SCRMB control being added every four hours. […] Calponin expression during stretch was rescued by the addition of 10 μM NoxA1ds, yet was unaffected by the addition of 10 μM scrambled peptide (SCRMB). A representative Western blot is shown below the graph (FIG. 9B). Osteopontin (OPN, a marker of the […] phenotype), expression increased after 24 hrs of stretch.

Nox5 = target: T2, Nox5 (Homo sapiens, UniProt Q96PH1); test: O2- production by lysates of HEK293 cells stably transfected with Nox5 oxidase, Ca2+-stimulated (cytochrome c); type: cell-based; settings: 0.1 nM to 10,000 nM
T2 construct: expressed in transfected cells; cell lysates
T2 sequence (Q96PH1 1-765): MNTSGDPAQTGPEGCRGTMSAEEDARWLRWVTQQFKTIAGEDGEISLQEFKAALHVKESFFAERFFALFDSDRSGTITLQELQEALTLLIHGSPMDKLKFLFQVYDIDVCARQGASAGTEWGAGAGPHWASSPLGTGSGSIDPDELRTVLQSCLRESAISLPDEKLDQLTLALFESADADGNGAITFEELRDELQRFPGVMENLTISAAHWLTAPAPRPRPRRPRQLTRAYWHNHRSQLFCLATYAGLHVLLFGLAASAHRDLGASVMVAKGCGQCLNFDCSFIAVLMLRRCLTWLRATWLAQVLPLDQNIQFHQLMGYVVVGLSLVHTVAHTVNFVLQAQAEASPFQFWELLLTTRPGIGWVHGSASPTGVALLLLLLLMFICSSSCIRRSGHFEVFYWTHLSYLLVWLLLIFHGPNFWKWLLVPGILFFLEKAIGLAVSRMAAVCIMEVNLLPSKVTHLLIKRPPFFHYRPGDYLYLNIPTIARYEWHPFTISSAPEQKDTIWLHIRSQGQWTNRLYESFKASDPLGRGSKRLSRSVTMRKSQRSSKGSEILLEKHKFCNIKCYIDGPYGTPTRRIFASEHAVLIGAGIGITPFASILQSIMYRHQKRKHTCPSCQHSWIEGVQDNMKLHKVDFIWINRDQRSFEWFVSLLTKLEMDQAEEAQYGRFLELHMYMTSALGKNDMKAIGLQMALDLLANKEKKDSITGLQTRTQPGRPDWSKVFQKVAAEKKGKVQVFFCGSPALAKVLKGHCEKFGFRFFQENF
Procedure: To test whether the inhibitory effect of NoxA1ds is specific to Nox1, the effect of NoxA1ds was tested on cells expressing Nox2, Nox4, and Nox5 as well as on purified xanthine oxidase enzyme. To test the effect on Nox2, production of O2^− was measured by the reduction of cytochrome c by cell lysates from COS cells transiently transfected with the Nox2 oxidase, stimulated with LiDS, and the treated with increasing concentrations of NoxA1ds (from 0.1 nM to 10,000 nM). Similarly, production of H2O2 was measured by Amplex red fluorescence by COS cells transiently transfected with the Nox4 oxidase and treated with increasing concentrations of NoxA1ds (from 100 nM to 10,000 nM). Production of O2^− was also measured by the reduction of cytochrome c by cell lysates from HEK293 cells stably transfected with the Nox5 oxidase stimulated with Ca^2+, and treated with increasing concentrations of NoxA1ds (from 0.1 nM to 10,000 nM). Finally, production of O2^− was measured by Electron Paramagnetic Resonance from pure xanthine oxidase enzyme preparations, stimulated with hypoxanthine and treated with increasing concentrations of NoxA1ds (from 0.1 nM to 10,000 nM).

inhibition at 1 µM (Nox1): 88%
Substance: H-EPVDALGKAKV-NH2 [NoxA1ds, [NH3^+]-EPVDALGKAKV-[CONH2]]
AngII-induced O2- production [1]: completely inhibited
Calponin expression during stretch [2]: rescued
Osteopontin (OPN) expression during stretch [2]: returned to levels observed in the absence of stretch
Inhibitory effect on Nox5 O2- production (Nox5): did not exhibit a significant inhibitory effect
